The text below walks through data of patent publication US9765060B2 (Gilead Sciences, Inc., priority 2014, dated 2017).

The term IC50 denotes the concentration that inhibits the measured activity by half.

Chain of PI3K isoform δ (O00329 whole entry, canonical isoform): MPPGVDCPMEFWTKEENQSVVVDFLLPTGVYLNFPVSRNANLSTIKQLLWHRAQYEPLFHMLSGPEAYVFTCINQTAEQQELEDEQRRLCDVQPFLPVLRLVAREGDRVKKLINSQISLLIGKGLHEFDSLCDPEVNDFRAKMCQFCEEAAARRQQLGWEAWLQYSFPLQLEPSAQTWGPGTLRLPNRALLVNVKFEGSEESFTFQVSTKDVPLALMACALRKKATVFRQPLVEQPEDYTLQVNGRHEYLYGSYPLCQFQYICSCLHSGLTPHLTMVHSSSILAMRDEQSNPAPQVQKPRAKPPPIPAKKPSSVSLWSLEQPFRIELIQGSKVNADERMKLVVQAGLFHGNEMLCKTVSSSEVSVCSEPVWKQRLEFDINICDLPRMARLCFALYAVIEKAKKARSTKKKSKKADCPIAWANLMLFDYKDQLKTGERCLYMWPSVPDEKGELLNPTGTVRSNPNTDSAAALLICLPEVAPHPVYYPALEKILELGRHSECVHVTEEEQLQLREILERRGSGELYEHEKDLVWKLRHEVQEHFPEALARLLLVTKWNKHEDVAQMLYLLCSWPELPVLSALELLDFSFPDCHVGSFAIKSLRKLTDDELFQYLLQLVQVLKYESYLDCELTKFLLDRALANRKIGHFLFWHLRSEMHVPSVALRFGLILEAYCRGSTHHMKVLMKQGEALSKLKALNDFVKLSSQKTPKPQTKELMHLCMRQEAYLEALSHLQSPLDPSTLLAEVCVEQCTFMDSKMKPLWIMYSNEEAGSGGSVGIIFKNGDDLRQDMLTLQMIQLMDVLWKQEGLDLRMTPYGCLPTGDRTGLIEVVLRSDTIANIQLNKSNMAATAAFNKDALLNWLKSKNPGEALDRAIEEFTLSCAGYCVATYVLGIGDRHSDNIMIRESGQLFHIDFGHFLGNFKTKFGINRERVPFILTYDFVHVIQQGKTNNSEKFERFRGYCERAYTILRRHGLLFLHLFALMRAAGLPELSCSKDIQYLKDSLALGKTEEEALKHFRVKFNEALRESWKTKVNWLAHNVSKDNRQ
Chain of PI3K isoform δ (P27986 whole entry partner, canonical isoform): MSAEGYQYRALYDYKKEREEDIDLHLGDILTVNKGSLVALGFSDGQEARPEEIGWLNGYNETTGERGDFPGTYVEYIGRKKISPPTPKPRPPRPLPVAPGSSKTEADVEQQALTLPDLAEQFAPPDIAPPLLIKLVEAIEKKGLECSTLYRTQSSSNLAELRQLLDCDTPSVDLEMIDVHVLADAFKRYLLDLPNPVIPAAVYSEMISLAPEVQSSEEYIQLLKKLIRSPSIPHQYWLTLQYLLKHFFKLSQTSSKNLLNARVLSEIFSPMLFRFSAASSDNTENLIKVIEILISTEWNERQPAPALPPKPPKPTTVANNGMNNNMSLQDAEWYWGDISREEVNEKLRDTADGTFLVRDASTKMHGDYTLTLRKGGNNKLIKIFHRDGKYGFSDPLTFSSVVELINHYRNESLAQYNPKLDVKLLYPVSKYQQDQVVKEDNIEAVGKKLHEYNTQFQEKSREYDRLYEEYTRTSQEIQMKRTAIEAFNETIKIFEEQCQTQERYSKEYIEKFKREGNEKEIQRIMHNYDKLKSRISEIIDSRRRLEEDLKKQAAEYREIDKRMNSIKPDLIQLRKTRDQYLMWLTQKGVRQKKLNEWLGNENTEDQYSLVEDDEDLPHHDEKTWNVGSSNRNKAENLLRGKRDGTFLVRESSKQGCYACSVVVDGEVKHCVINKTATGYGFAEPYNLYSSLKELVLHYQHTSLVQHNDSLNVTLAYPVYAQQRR

One test concerns the target PI3K isoform δ (Homo sapiens (Human), UniProt O00329). Nature of the test: TR-FRET assay of enzymatic activity of class I PI3K isoforms. Particulars: IC50 (nM) for PI3K isoform δ (Table 3), TR-FRET; 2× Km ATP, 2 μM PIP2; incubated for 30 minutes at 25° C.
Excerpt: TR-FRET monitored the formation of 3,4,5-inositol triphosphate molecule that competed with fluorescently labeled PIP3 for binding to the GRP-1 pleckstrin homology domain protein. […] Class I PI3K isoforms were expressed and purified as heterodimeric recombinant proteins. All assay reagents and buffers for the TR-FRET assay were purchased from Millipore.
On to `C[C@H](Nc1nc(N)nc(N)c1C#N)c1nc2cccc(OCCN(C)C)c2c(=O)n1-c1ccccc1` [Compound 27], for which the IC50 was determined as 57 nM.

The same test, now with this note: read-out: IC50 (nM) for PI3K isoform δ (Table 3); TR-FRET; 2× Km ATP, 2 μM PIP2; incubated for 30 minutes at 25° C.
For `C[C@H](Nc1nc(N)nc(N)c1C#N)c1nc2cccc(OCCN3CCCC3=O)c2c(=O)n1-c1ccccc1` [Compound 26], the 50% inhibitory concentration (IC50) stood at 21 nM. For `C[C@H](Nc1nc(N)nc(N)c1C#N)c1nc2cccc(OCC(=O)N3CCCCC3)c2c(=O)n1-c1ccccc1` [Compound 28, (S)-2,4-diamino-6-((1-(4-oxo-5-(2-oxo-2-(piperidin-1-yl)ethoxy)-3-phenyl-3,4-dihydroquinazolin-2-yl)ethyl)amino)pyrimidine-5-carbonitrile], the 50% inhibitory concentration (IC50) worked out at 2 nM. For `C[C@H](Nc1nc(N)nc(N)c1C#N)c1nc2cccc(OCC(C)(CO)CO)c2c(=O)n1-c1ccccc1` [Compound 29, (S)-2,4-diamino-6-((1-(5-(3-hydroxy-2-(hydroxymethyl)-2-methylpropoxy)-4-oxo-3-phenyl-3,4-dihydroquinazolin-2-yl)ethyl)amino)pyrimidine-5-carbonitrile], the half-maximal inhibitory concentration (IC50) came out at 220 nM. Consider `C[C@H](Nc1nc(N)nc(N)c1C#N)c1nc2cccc(OCCN3CCCCC3)c2c(=O)n1-c1ccccc1` [Compound 30, (S)-2,4-diamino-6-((1-(4-oxo-3-phenyl-5-(2-(piperidin-1-yl)ethoxy)-3,4-dihydroquinazolin-2-yl)ethyl)amino)pyrimidine-5-carbonitrile], for which the IC50 was determined as 6 nM.

In the case of `C[C@H](Nc1nc(N)nc(N)c1C#N)c1nc2cccc(OCCN3CCN(c4ccccc4)CC3)c2c(=O)n1-c1ccccc1` [Compound 31, (S)-2,4-diamino-6-((1-(4-oxo-3-phenyl-5-(2-(4-phenylpiperazin-1-yl)ethoxy)-3,4-dihydroquinazolin-2-yl)ethyl)amino)pyrimidine-5-carbonitrile], the 50% inhibitory concentration (IC50) was 4 nM. As for `Cc1nccn1CCOc1cccc2nc([C@H](C)Nc3nc(N)nc(N)c3C#N)n(-c3ccccc3)c(=O)c12` [Compound 32, (S)-2,4-diamino-6-((1-(5-(2-(2-methyl-1H-imidazol-1-yl)ethoxy)-4-oxo-3-phenyl-3,4-dihydroquinazolin-2-yl)ethyl)amino)pyrimidine-5-carbonitrile], the IC50 came to 85 nM.

For `C[C@H](Nc1nc(N)nc(N)c1C#N)c1nc2cccc(OCCC3CCCN3C)c2c(=O)n1-c1ccccc1` (stereo partly drawn) [Compound 33, 2,4-diamino-6-(((1S)-1-(5-(2-(1-methylpyrrolidin-2-yl)ethoxy)-4-oxo-3-phenyl-3,4-dihydroquinazolin-2-yl)ethyl)amino)pyrimidine-5-carbonitrile], the IC50 was 24 nM.

On to `C[C@H](Nc1nc(N)nc(N)c1C#N)c1nc2cccc(OCC3(C)COC3)c2c(=O)n1-c1ccccc1` [Compound 34, (S)-2,4-diamino-6-((1-(5-((3-methyloxetan-3-yl)methoxy)-4-oxo-3-phenyl-3,4-dihydroquinazolin-2-yl)ethyl)amino)pyrimidine-5-carbonitrile], for which the half-maximal inhibitory concentration (IC50) amounted to 46 nM. Regarding `C[C@H](Nc1nc(N)nc(N)c1C#N)c1nc2cccc(OCC(=O)N3CCOCC3)c2c(=O)n1-c1ccccc1` [Compound 35, (S)-2,4-diamino-6-((1-(5-(2-morpholino-2-oxoethoxy)-4-oxo-3-phenyl-3,4-dihydroquinazolin-2-yl)ethyl)amino)pyrimidine-5-carbonitrile], the concentration for half-maximal inhibition (IC50) was 7 nM. For `CC1CCN(C(=O)COc2cccc3nc([C@H](C)Nc4nc(N)nc(N)c4C#N)n(-c4ccccc4)c(=O)c23)CC1` [Compound 36, (S)-2,4-diamino-6-((1-(5-(2-(4-methylpiperidin-1-yl)-2-oxoethoxy)-4-oxo-3-phenyl-3,4-dihydroquinazolin-2-yl)ethyl)amino)pyrimidine-5-carbonitrile], the IC50 was 2 nM. As to `C[C@H](Nc1nc(N)nc(N)c1C#N)c1nc2c(F)ccc(CCC(N)=O)c2c(=O)n1-c1ccccc1` [Compound 38, (S)-3-(2-(1-((2,6-diamino-5-cyanopyrimidin-4-yl)amino)ethyl)-8-fluoro-4-oxo-3-phenyl-3,4-dihydroquinazoline-5-yl)propanamide], the IC50 is 0.5 nM. In the case of `C[C@H](Nc1nc(N)nc(N)c1C#N)c1nc2c(F)ccc(CCC(N)=O)c2c(=O)n1-c1cc(F)cc(F)c1` [Compound 39, (S)-3-(2-(1-((2,6-diamino-5-cyanopyrimidin-4-yl)amino)ethyl)-3-(3,5-difluorophenyl)-8-fluoro-4-oxo-3,4-dihydroquinazoline-5-yl)propanamide], the half-maximal inhibitory concentration (IC50) was 2 nM.

As for `C[C@H](Nc1nc(N)nc(N)c1C#N)c1nc2cccc(CCC(N)=O)c2c(=O)n1-c1cc(F)cc(F)c1` [Compound 40, (S)-3-(2-(1-((2,6-diamino-5-cyanopyrimidin-4-yl)amino)ethyl)-3-(3,5-difluorophenyl)-4-oxo-3,4-dihydroquinazoline-5-yl)propanamide], the IC50 worked out at 4 nM. Consider `C[C@H](Nc1nc(N)nc(N)c1Cl)c1nc2c(F)ccc(CCC(N)=O)c2c(=O)n1-c1cc(F)cc(F)c1` [Compound 41, (S)-3-(2-(1-((2,6-diamino-5-chloropyrimidin-4-yl)amino)ethyl)-3-(3,5-difluorophenyl)-8-fluoro-4-oxo-3,4-dihydroquinazoline-5-yl)propanamide], for which the concentration for half-maximal inhibition (IC50) turned out to be 25 nM. Consider `C[C@H](Nc1nc(N)nc(N)c1Cl)c1nc2cccc(CCC(N)=O)c2c(=O)n1-c1cc(F)cc(F)c1` [Compound 42, (S)-3-(2-(1-((2,6-diamino-5-chloropyrimidin-4-yl)amino)ethyl)-3-(3,5-difluorophenyl)-4-oxo-3,4-dihydroquinazoline-5-yl)propanamide], for which the IC50 amounted to 20 nM. Same read-out and setting: to `C[C@H](Nc1nc(N)nc(N)c1Cl)c1nc2cccc(CCC(N)=O)c2c(=O)n1-c1ccccc1` [Compound 43, (S)-3-(2-(1-((2,6-diamino-5-chloropyrimidin-4-yl)amino)ethyl)-4-oxo-3-phenyl-3,4-dihydroquinazoline-5-yl)propanamide] belongs 9 nM; to `CC(Cc1cccc2nc([C@H](C)Nc3nc(N)nc(N)c3C#N)n(-c3ccccc3)c(=O)c12)N1CCCC1` (stereo partly drawn) [Compound 45, (S)-2,4-diamino-6-((1-(4-oxo-3-phenyl-5-(2-(pyrrolidin-1-yl)propyl)-3,4-dihydroquinazolin-2-yl)ethyl)amino)pyrimidine-5-carbonitrile], 0.7 nM. For the compound `C[C@H](Nc1nc(N)nc(N)c1C#N)c1nc2cccc(CCCN3CCCCC3)c2c(=O)n1-c1ccccc1` [Compound 46, (S)-2,4-diamino-6-((1-(4-oxo-3-phenyl-5-(3-(piperidin-1-yl)propyl)-3,4-dihydroquinazolin-2-yl)ethyl)amino)pyrimidine-5-carbonitrile], the IC50 was 0.4 nM. Turning to `C[C@H](Nc1nc(N)nc(N)c1C#N)c1nc2cccc(CCCN3CCC(F)(F)C3)c2c(=O)n1-c1ccccc1` [Compound 47, (S)-2,4-diamino-6-((1-(5-(3-(3,3-difluoropyrrolidin-1-yl)propyl)-4-oxo-3-phenyl-3,4-dihydroquinazolin-2-yl)ethyl)amino)pyrimidine-5-carbonitrile], the IC50 amounted to 2 nM. For the compound `C[C@H](Nc1nc(N)nc(N)c1C#N)c1nc2cccc(CCCN3CCC(F)(F)CC3)c2c(=O)n1-c1ccccc1` [Compound 48, (S)-2,4-diamino-6-((1-(5-(3-(4,4-difluoropiperidin-1-yl)propyl)-4-oxo-3-phenyl-3,4-dihydroquinazolin-2-yl)ethyl)amino)pyrimidine-5-carbonitrile], the concentration for half-maximal inhibition (IC50) is 0.5 nM.
